Read-outs that look alike come from different tables or passages of the source.
Tests used:
[1] = for Relative stability in whole blood and plasma: whole blood versus plasma; for Length of time for which stability is assumed: whole blood
[2] = plasma
[3] = assay type: physicochemical; conditions: −80 °C

SMILES	Relative stability in whole blood and plasma [1]	Length of time for which stability is assumed ([1]; 4°C) [h 4 °C]	Length of time for which stability is assumed ([1]; RT (room temperature)) [h RT]	Length of time for which stability is assumed ([2]; 4°C) [h 4 °C]	Length of time for which stability is assumed ([2]; RT (room temperature)) [h RT]	Length of time for which stability is assumed ([2]; −20°C, W = week) [W−20 °C]	Length of time for which stability is assumed ([2]; −80°C, M = month) [M−80 °C]	Stock solution stable for up to [3] [months]
Cc1nnc(SCC2=C(C(=O)O)N3C(=O)[C@@H](NC(=O)Cn4cnnn4)[C@H]3SC2)s1 [Cefazolin, cefazolin]	stable in both matrices	48	24	48	24	2	8	–
CO/N=C(\C(=O)N[C@@H]1C(=O)N2C(C(=O)[O-])=C(C[N+]3(C)CCCC3)CS[C@H]12)c1csc(N)n1 [Cefepime, cefepime]	–	48	24	8	5	1	8	–
CO/N=C(\C(=O)N[C@@H]1C(=O)N2C(C(=O)O)=C(COC(C)=O)CS[C@H]12)c1csc(N)n1 [Cefotaxime, cefotaxime]	–	48	24	48	8	–	8	–
CC(C)(O/N=C(\C(=O)N[C@@H]1C(=O)N2C(C(=O)[O-])=C(C[n+]3ccccc3)CS[C@H]12)c1csc(N)n1)C(=O)O [Ceftazidime, ceftazidime]	–	–	–	8	–	–	–	–
Cc1onc(-c2c(F)cccc2Cl)c1C(=O)N[C@@H]1C(=O)N2[C@@H]1SC(C)(C)[C@@H]2C(=O)O [Flucloxacillin, flucloxacillin]	more stable in plasma	8	8	24	8	2	8	–
CC(=O)NC[C@H]1CN(c2ccc(N3CCOCC3)c(F)c2)C(=O)O1 [Linezolid, linezolid]	stable in both matrices	48	24	48	24	2	8	20
C[C@@H](O)[C@H]1C(=O)N2C(C(=O)O)=C(S[C@@H]3CN[C@H](C(=O)N(C)C)C3)[C@H](C)[C@H]12 [Meropenem, meropenem]	more stable in whole blood than in plasma	48	8	24	8	1	8	–
CCN1CCN(C(=O)N[C@@H](C(=O)N[C@@H]2C(=O)N3[C@@H]2SC(C)(C)[C@@H]3C(=O)O)c2ccccc2)C(=O)C1=O [Piperacillin, piperacillin]	–	48	24	24	5	1	–	–
C[C@]1(Cn2ccnn2)[C@H](C(=O)O)N2C(=O)C[C@H]2S1(=O)=O [Tazobactam, tazobactam]	more stable in whole blood than in plasma	48	24	24	8	1	–	–

Source: paper PMC9756784 (Journal of Mass Spectrometry and Advances in the Clinical …, 2022)
